Assay results published in patent US3937829A, “Medicinal preparation for treatment of various forms of leprosy” (priority 1973, dated 1976).

Experiments:
[1] = clinico-biochemical data and blood findings in leprosy patients; assay type: in vivo, human
Mycobacterium leprae = test: clinical experiments on 99 leprosy patients, therapeutic effect; assay type: in vivo, human
[2] = toxicity with respect to warm-blooded animals
lymphocytes = test: intracellular metabolism, RNA quantity in a cell and phagocytosis; assay type: cell-based, human
[3] = concentration of sulfonic preparations in the blood during treatment; assay type: in vivo
Experimental: When determining the concentration of sulfonic preparations in the blood during treatment with diaminodiphenylsulfone, sulphetrone and the inventive preparations, it was observed that the concentration of the inventive preparation is twelve times as high as that of diaminodiphenylsulfone, both being administered as a powder at a dose of 0.1 g s.i.d. Futhermore, Injection of 2 ml of a 10 percent solution of the inventive preparation gave a concentration in the blood four times that which resulted from the introduction of 1 ml of 15-10 percent solution of sulphetrone.

[4] = toxico-biological action during a three-month period (biochemical and histomorphological analyses); assay type: in vivo, white mice, rats and cats; settings: compared to control animals
Text: Toxico-biological action of the preparation was studied in animals of the three species, viz., white mice, rats and cats. As a result, it was established that introduction of the medicinal preparation into an animal's organism during a three-month period provokes no changes, according to the data of biochemical and histomorphological analyses, in the internal organs, endocrine glands, brain, nerves and blood as compared to the control animals.

[5] = test system: lymphocytes of the human peripheral blood; test: influence upon the synthesis of RNA in lymphocytes; assay type: cell-based
Text: This may be considered as an evidence of possible differentiation of the lymphocytes or of potentiation of their specific function under the effect of the preparation.

[6] = thermal stability (heating); assay type: physicochemical
Experimental: (§1) The preparation is soluble in diluted alkalis, dimethylformamide and dimethysulfoxide. Aqueous solutions of the preparation give an acid reaction. M.p. of the preparation lies at 233°-234°C, at temperatures above 235°C it decomposes; the preparation withstands heating at 150°C during 2 hours, at 100°C during 5 hours without decomposition.

storage stability = assay type: physicochemical
Text: The medicinal preparation according to the invention for treatment of various forms of leprosy is stable when under long-term storage.

[7] = solubility and reaction of aqueous solutions; assay type: physicochemical
Experimental: as §1

[8] = human, in vivo

SMILES: Cc1[nH]c(=O)[nH]c(=O)c1S(=O)(=O)Nc1ccc(S(=O)(=O)c2ccc(NS(=O)(=O)c3c(C)[nH]c(=O)[nH]c3=O)cc2)cc1 [preparation, p,-p-bis(2,4-dioxy-6-methylpyrimidinyl-5-sulfonamido)diphenylsulfone]
- anabolic effect ([1]; clinico-biochemical data): less manifested
- antipyretic effect ([1]; clinico-biochemical data): sharply pronounced
- amount of erythrocytes ([1]; in the course of treatment): increased amount of erythrocytes
- percentage of hemoglobin ([1]; in the course of treatment): higher percentage of hemoglobin
- protein metabolism ([1]; in the course of treatment): normalized protein metabolism
- recurrence of the disease (Mycobacterium leprae; 36 patients dismissed for ambulant therapy, following four years): None of the 36 patients
- therapeutic effect in patients resistant to sulfonic antileprotic preparations (Mycobacterium leprae; all patients resistant to sulfonic antileprotic preparations): good therapeutic effect
- transformation of the lepromatous form into the tuberculoid form (Mycobacterium leprae; histological examinations during the course of treatment): 7 patients
- start of the regress of the disease (Mycobacterium leprae; human, in vivo): 3-6 weeks
- leprous reactions, neurites, inflammatory processes of the mucous membranes (Mycobacterium leprae; in the course of treatment): disappeared
- character of the regress of the disease (Mycobacterium leprae; infiltrates, lepromas, causative agent, fibrosis): resolution of infiltrates and lepromas, appearance of a great amount of granular forms of the causative agent and bacterial decomposition, as well as occurrence of a sharply marked fibrosis
- effect in patients resistant to sulfonic or other antileprotic therapy (Mycobacterium leprae; patients resistant to sulfonic or some other antileprotic therapy): effective
- LD50 ([2]; in vivo): 2600 mg/kg
- toxicity relative to diaminodiphenylsulfone ([2]; white mice, rats, cats, vs diaminodiphenylsulfone): one-fifth
- intracellular metabolism (lymphocytes): promotes the processes of intracellular metabolism
- quantity of RNA in a cell (lymphocytes): enhances the quantity of RNA in a cell
- differentiation of lymphocytes and phagocytosis (lymphocytes; lepromatous form of leprosy): easier differentiation of the lymphocytes into phagocytic forms and to the completion of phagocytosis
- concentration in the blood relative to sulphetrone ([3]; 2 ml of 10 percent solution injected vs 1 ml of 15-10 percent solution of sulphetrone): four
- concentration in blood relative to diaminodiphenylsulfone ([3]; both as a powder, 0.1 g s.i.d.): twelve
- changes in internal organs, endocrine glands, brain, nerves and blood [4]: no changes
- toxicity and effect on protective power, as concluded from RNA synthesis ([5]; increased immune response): non-toxic and acts as a stimulant of the protective power of the organisms
- synthesis of RNA in lymphocytes ([5]; lymphocytes of the human peripheral blood): promotes the synthesis of RNA
- decomposition temperature [6]: above 235 °C
- withstands heating without decomposition ([6]; 100°C): 5 h
- withstands heating without decomposition ([6]; 150°C): 2 h
- retention of properties on storage (storage stability; darkness, 18°-25°C, 5 years): retain the appearance, melting point, IR-spectrum data, solubility and pH value of an aqueous solution
- storage stability (storage stability; long-term storage): stable
- solubility in aqueous novocain solution ([7]; 0.1-1-percent aqueous novocain solution): sparingly soluble
- reaction of aqueous solutions ([7]; aqueous solutions): acid reaction
- solubility in diluted alkalis ([7]; diluted alkalis): soluble
- solubility in dimethylformamide ([7]; dimethylformamide): soluble
- solubility in dimethysulfoxide ([7]; dimethysulfoxide): soluble
- solubility in ethyl alcohol ([7]; ethyl alcohol): insoluble
- solubility in physiological saline ([7]; physiological saline): sparingly soluble
- solubility in water ([7]; water): sparingly soluble
- solubility ([7]; water, solutions, read-out: concentration of the active principle above which the substance precipitates): > 120 mg/mL
- side effects [8]: none of the patients was found to suffer from any side effect
